Results on two molecules are retold here after EP3974434B1, “MACROLIDE DERIVATIVES, PREPARATION METHOD AND APPLICATION THEREOF” (Zhejiang Hisun Pharmaceutical Co., Ltd., priority 2019, dated 2020).

Molecules are shown by their SMILES.

One experiment has as its target T1, ALK(G1202R) (Homo sapiens, UniProt Q9UM73, G1202R).
T1 construct: purchased SignalChem A19-12HG-10
The experiment in a line: HTRF KinEASE-TK kinase activity inhibition assay, ALK(G1202R). The experiment is classed as biochemical. Particulars: ATP 10 µM. The source says: (§1) The following method was used to determine the inhibition degrees of the compounds of the present invention on the activities of recombinant human ALK(G1202R) and ALK(L1196M, G1202R) kinases in vitro. In this method, HTRF®KinEASE-TK tyrosine kinase kit (article No. 62TK0PEB) of Cisbio company was used, the principle of the kit was based on time-resolved fluorescence resonance energy transfer (TF-FRET), and the inhibitions of the compounds on the activities of the ALK(G1202R) and ALK(L1196M, G1202R) kinases were reflected by determining a phosphorylation degree of a biotinylated polypeptide substrate mediated by ALK kinase. For detailed experimental operation, please refer to the kit instruction. […]
(§2) The experimental flow was briefly described as follows: a test compound was first dissolved in DMSO to prepare a storage solution, and then diluted in gradient with a buffer provided in the kit. […] An ATP Km value concentration of each ALK protein was determined by using an ATP solution diluted in gradient (Sangon Biotech (Shanghai) Co., Ltd., A600311). […] After incubation, fluorescence intensity values of each well at an excitation wavelength of 304 nm, and emission wavelengths of 620 nm and 665 nM were determined in a TF-FRET mode on a microplate reader, and the fluorescence intensity ratio 665/620 of each hole was calculated. […]
(In general: In TR-FRET formats the signal depends on donor and acceptor labels being close together.)

For another experiment, the target named is T2, TRKC (Homo sapiens, UniProt Q16288).
T2 construct: purchased Carna bioscience 08-197
T2 sequence (Q16288 32-839): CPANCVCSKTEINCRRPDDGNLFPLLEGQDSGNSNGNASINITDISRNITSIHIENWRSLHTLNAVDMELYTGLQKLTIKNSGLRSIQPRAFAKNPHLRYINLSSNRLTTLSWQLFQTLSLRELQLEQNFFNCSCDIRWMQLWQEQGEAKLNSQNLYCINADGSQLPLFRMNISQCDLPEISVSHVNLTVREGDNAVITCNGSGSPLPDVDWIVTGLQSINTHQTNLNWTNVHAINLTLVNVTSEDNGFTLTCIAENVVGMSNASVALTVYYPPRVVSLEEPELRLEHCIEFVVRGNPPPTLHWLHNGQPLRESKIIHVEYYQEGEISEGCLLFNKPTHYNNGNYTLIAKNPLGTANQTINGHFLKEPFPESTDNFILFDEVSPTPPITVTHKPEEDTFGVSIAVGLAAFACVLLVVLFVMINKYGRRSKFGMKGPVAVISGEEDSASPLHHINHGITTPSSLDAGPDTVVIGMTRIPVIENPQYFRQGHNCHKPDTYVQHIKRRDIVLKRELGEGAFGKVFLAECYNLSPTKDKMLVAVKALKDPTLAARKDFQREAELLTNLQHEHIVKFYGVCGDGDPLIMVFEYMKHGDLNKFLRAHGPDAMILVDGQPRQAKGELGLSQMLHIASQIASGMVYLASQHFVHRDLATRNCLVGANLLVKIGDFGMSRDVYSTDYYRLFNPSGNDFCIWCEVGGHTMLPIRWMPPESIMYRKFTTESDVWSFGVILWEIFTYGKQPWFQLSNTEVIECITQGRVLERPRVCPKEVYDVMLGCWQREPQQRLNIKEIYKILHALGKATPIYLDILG
In words: HTRF KinEASE-TK kinase activity inhibition assay, TRKC. It is filed as biochemical. Particulars: ATP 50 µM. The text has this:
The following method was used to determine the inhibition degrees of the compounds of the present invention on the activity of recombinant human NTRK family kinase in vitro. In this method, HTRF®KinEASE-TK tyrosine kinase kit (article number: 62TK0PEB) of Cisbio company was used, and the principle of the kit was based on time-resolved fluorescence resonance energy transfer (TF-FRET), and the inhibition of the compounds on the activity of the NTRK kinase was reflected by determining a phosphorylation degree of a biotinylated polypeptide substrate mediated by NTRK kinase. For detailed experimental operation, please refer to the kit instruction. Recombinant human wild-type NTRK proteins were purchased from Carna bioscience (the article numbers were TRKA #08-186, TRKB #08-187 and TRKC #08-197 respectively), and recombinant human mutant NTRK proteins were purchased from SignalChem (the article numbers were TRKA G595R #N16-12BG-10, TRKA G667C # N16-12CG-10, and TRKC G623R # N18-12CH-10 respectively).
The experimental methods were operated according to the steps in the kit instruction, and were briefly described as follows: a test compound was first dissolved in DMSO to prepare a storage solution, and then diluted in gradient with a buffer provided in the kit. A final concentration of the test compound in the reaction system ranged from 1,000 nM to 0.004 nM. An ATP Km value concentration of each NTRK protein was determined by using an ATP solution diluted in gradient (Sangon Biotech (Shanghai) Co., Ltd., A600311). According to the Km value obtained, the ATP concentrations in the reaction system were set as 100 µM for TRKA, 10 µM for TRKB, 50 µM for TRKC, 7 µM for TRKA(G595R), 1 µM for TRKA(G667C) and 100 µM for TRKC(G623R). The reaction was carried out in a 384-well microplate. Firstly, the compound and a certain amount of corresponding NTRK protein were added to the wells and incubated for 5 minutes to 10 minutes at room temperature. Then, the ATP solution and the biotinylated polypeptide substrate solution were added to the reaction solution and incubated with shaking at room temperature for 60 minutes. Then, an anti-phosphorylated tyrosine antibody coupled with a europium compound and streptavidin coupled with modified allophycocyanin XL665 were added to the reaction, and continuously incubated with shaking at room temperature for 1 hour. After incubation, fluorescence intensity values of each well at an excitation wavelength of 304 nm, and emission wavelengths of 620 nm and 665 nM were determined in a TF-FRET mode on a microplate reader. Compared with the fluorescence intensity ratio of a control group (0.1% DMSO), the percentage inhibition rates of the compound at each concentration were calculated, and the IC50 value of the compound was obtained by performing nonlinear regression analysis for logarithmic value of the compound concentration - inhibition rate by GraphPad Prism 5 software, which can be seen in Table 1. Table 1 IC50 data of the compounds of the present invention on TRK enzyme activity inhibition

The subject of another experiment is BAF3 LMNA-TRKA^G595R. In words: Cell proliferation assay (CellTiter-Glo), BAF3 LMNA-TRKA G595R. The experiment is classed as cell-based. The conditions noted are these: Mus musculus, 72 hours.
The target of a further experiment is T3, ALK(L1196M, G1202R) (Homo sapiens, UniProt Q9UM73, G1202R/L1196M).
T3 construct: purchased SignalChem A19-12NG-10
T3 sequence (Q9UM73 19-1620 L1196M/G1202R): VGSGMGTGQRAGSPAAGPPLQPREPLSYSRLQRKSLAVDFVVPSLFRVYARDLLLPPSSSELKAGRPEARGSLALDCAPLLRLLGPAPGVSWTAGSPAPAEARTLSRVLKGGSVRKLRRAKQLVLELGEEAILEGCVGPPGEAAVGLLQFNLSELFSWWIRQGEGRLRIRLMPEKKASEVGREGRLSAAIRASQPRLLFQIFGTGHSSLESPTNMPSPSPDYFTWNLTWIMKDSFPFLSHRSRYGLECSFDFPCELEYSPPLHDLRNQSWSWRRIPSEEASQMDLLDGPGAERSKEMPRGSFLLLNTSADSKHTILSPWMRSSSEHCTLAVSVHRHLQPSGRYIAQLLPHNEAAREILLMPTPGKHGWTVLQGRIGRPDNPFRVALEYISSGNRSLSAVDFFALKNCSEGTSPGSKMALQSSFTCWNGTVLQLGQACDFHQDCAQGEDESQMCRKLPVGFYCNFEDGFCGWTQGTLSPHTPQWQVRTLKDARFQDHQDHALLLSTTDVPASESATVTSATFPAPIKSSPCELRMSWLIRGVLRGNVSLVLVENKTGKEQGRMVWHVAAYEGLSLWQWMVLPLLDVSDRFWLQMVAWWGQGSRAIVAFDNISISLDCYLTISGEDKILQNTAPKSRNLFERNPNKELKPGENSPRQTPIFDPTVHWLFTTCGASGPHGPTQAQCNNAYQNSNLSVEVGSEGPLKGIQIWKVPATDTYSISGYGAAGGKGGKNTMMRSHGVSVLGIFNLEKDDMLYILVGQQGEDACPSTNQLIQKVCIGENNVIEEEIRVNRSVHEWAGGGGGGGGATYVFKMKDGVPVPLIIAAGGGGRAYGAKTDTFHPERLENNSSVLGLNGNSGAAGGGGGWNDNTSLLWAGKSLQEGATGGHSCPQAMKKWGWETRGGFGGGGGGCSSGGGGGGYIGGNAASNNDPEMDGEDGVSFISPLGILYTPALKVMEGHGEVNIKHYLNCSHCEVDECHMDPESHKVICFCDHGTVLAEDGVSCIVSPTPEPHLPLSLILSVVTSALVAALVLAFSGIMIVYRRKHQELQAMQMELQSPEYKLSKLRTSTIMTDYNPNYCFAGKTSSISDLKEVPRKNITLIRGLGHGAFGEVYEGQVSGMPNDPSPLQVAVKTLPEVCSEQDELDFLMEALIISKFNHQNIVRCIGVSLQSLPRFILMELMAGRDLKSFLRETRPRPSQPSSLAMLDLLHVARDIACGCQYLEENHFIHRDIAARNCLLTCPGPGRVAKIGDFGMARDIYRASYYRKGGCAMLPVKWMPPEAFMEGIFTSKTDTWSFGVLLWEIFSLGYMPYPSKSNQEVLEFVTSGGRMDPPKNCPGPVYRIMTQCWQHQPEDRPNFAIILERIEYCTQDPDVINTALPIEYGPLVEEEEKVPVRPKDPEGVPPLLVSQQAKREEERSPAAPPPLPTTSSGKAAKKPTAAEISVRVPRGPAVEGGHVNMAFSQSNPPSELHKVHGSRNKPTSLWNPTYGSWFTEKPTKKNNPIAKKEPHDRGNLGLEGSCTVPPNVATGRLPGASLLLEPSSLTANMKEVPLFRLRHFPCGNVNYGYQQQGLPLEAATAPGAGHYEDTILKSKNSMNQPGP
The experiment in a line: HTRF KinEASE-TK kinase activity inhibition assay, ALK(L1196M, G1202R). Particulars: ATP 25 µM. It is filed as biochemical.
From the text: as §1, §2

T1 sequence (Q9UM73 19-1620 G1202R): as the sequence (Q9UM73 19-1620 L1196M/G1202R) above, with M1178L counted along it
Method for BAF3 LMNA-TRKA^G595R: The following method was used to determine the effects of the compounds of the present invention on cell proliferation. […] For TRKA, BAF3 LMNA-TRKA^G595R stably transformed cell line was constructed by BAF3 cells. The above cell line was used to determine the inhibition of the compounds on cell activity. […] The cells were cultured in a 5% CO2 incubator at 37°C. The activity of the cells were determined by CellTiter-Glo® Luminescent Cell Viability Assay kit (Promega, article number: G7573).
The experimental methods were operated according to the steps in the kit instruction, and were briefly described as follows: a test compound was first dissolved in DMSO to prepare a storage solution, and then diluted in gradient with the corresponding cell culture medium to prepare a test sample. […] Cells in logarithmic growth phase were inoculated into a 96-well cell culture plate at a suitable density, and the cells were cultured in a 5% CO2 incubator at 37°C overnight. After adding the sample of the test compound, the cells were continuously cultured for 72 hours. After the culture, 50 µL of CellTiter-Glo detection solution was added to each well, shaken for 5 minutes, and then stood for 10 minutes, and the luminescence values of each well were read on the microplate reader using a Luminance mode.

Consider `C[C@H]1Nc2ccn3ncc(c3n2)C(=O)NC[C@@]2(C)Cc3cc(F)cc1c3O2` [Example 8, (3R,11R)-6-fluoro-3,11-dimethyl-10-oxa-2,13,17,1 8,21-pentaazapentacyclo[13.5.2.1^8,11.0^4,9.0^18,22]tric osa-1(21),4,6,8,15(22),16,19-heptaen-14-one], for which the IC50 worked out at 13.2 nM at ALK(G1202R); 0.22 nM on TRKC; 3.1 nM with BAF3 LMNA-TRKA^G595R; 20.7 nM against ALK(L1196M, G1202R).
For the molecule `C[C@H]1Nc2ccn3nc(N)c(c3n2)C(=O)NC[C@@]2(C)Cc3cc(F)cc1c3O2` [Example 25, (3R,11R)-16-amino-6-fluoro-3,11-dimethyl-10-oxa-2,13,17,18,21-pentaazapentacyclo[13.5.2.1^8,11.0^4,9. 0^18,22]tricosa-1(21),4,6,8,15(22),16,19-heptaen-14-one], the IC50 against ALK(G1202R) stood at 13.6 nM; at TRKC, 0.7 nM; with BAF3 LMNA-TRKA^G595R, 2.2 nM; against ALK(L1196M, G1202R) it was 24.2 nM.

One may read the IC50 as the midpoint of a concentration-inhibition curve. The low end stands for inhibition by little substance, the high end for a need for much substance.
